Measured values: ChEMBL document CHEMBL1208739, “Synthesis and SAR of azolopyrimidines as potent and selective dipeptidyl peptidase-4 (DPP4) inhibitors for type 2 diabetes” (Bioorg Med Chem Lett, 2010)

Tests used:
Dipeptidyl peptidase 9 = Dipeptidyl peptidase 9 (Homo sapiens, UniProt Q86TI2); test: Inhibition of human DPP89
Dipeptidyl peptidase 8 = Dipeptidyl peptidase 8 (Homo sapiens, UniProt Q6V1X1); test: Inhibition of human DPP8
Cytochrome P450 2C19 = Cytochrome P450 2C19 (Homo sapiens, UniProt P33261); test: inhibition of CYP2C19; format: ADME
Cytochrome P450 3A4 = Cytochrome P450 3A4 (Homo sapiens, UniProt P08684); test: inhibition of CYP3A4; format: ADME
Cytochrome P450 1A2 = molecular target: T1, Cytochrome P450 1A2 (Homo sapiens, UniProt P05177); test: inhibition of CYP1A2; format: ADME
T1 sequence (P05177 whole entry): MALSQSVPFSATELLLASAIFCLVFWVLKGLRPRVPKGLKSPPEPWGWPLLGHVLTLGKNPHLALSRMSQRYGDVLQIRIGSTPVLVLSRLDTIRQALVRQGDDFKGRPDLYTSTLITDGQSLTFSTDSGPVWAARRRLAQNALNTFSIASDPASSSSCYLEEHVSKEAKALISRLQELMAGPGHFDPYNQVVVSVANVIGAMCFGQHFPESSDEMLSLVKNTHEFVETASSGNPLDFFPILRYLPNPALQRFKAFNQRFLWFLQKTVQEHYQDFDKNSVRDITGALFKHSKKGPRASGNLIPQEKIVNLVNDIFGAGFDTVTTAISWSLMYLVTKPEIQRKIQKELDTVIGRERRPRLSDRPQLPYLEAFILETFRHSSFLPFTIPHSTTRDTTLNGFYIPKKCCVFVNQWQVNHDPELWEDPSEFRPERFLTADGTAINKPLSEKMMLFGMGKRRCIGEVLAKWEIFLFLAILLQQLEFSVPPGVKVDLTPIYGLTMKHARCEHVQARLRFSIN

[1] = molecular target: Voltage-gated inwardly rectifying potassium channel KCNH2 (Homo sapiens, UniProt Q12809); test: Inhibition of human ERG
Cytochrome P450 2C9 = Cytochrome P450 2C9 (Homo sapiens, UniProt P11712); test: inhibition of CYP2C9; format: ADME
Mus musculus [2] = test: Antidiabetic activity in ob/ob mouse assessed as increase in mean insulin level at 10 umol/kg, po measured after 15 mins of glucose challenge by oral glucose tolerance test; format: functional
Mus musculus [3] = test: Antidiabetic activity in ob/ob mouse assessed as increase in mean insulin level at 3 umol/kg, po measured after 15 mins of glucose challenge by oral glucose tolerance test; format: functional

Sequence of Voltage-gated inwardly rectifying potassium channel KCNH2 (Q12809 whole entry): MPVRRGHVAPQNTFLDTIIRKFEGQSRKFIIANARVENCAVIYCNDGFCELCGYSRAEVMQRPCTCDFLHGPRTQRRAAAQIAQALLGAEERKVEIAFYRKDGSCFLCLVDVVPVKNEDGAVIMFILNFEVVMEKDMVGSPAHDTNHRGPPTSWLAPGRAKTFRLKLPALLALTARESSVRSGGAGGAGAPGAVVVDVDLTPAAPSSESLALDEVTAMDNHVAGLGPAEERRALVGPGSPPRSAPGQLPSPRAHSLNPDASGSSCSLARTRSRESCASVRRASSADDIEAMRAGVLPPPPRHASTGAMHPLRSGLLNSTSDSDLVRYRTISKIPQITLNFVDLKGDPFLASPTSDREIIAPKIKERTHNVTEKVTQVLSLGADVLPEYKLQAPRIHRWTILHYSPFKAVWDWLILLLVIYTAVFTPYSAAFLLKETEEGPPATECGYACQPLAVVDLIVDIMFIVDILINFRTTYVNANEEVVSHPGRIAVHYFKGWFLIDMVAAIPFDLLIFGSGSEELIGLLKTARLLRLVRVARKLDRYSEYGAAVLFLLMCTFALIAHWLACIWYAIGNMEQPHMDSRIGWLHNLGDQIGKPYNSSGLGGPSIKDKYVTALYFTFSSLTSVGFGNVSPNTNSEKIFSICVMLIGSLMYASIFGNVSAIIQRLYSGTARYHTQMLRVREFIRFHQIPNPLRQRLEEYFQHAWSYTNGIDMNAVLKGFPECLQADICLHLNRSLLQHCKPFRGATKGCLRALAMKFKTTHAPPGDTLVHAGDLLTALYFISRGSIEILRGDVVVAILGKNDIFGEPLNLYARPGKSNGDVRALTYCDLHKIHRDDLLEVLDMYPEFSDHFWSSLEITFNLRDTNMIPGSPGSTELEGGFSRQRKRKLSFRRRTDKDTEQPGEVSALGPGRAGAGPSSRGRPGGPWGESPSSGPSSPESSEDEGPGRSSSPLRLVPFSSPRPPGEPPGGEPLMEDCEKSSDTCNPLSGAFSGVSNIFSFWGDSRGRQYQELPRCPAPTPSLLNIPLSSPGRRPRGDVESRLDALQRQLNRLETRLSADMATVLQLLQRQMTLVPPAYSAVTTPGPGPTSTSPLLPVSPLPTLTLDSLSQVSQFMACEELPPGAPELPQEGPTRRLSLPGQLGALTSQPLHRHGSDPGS
Sequence of Dipeptidyl peptidase 8 (Q6V1X1 whole entry): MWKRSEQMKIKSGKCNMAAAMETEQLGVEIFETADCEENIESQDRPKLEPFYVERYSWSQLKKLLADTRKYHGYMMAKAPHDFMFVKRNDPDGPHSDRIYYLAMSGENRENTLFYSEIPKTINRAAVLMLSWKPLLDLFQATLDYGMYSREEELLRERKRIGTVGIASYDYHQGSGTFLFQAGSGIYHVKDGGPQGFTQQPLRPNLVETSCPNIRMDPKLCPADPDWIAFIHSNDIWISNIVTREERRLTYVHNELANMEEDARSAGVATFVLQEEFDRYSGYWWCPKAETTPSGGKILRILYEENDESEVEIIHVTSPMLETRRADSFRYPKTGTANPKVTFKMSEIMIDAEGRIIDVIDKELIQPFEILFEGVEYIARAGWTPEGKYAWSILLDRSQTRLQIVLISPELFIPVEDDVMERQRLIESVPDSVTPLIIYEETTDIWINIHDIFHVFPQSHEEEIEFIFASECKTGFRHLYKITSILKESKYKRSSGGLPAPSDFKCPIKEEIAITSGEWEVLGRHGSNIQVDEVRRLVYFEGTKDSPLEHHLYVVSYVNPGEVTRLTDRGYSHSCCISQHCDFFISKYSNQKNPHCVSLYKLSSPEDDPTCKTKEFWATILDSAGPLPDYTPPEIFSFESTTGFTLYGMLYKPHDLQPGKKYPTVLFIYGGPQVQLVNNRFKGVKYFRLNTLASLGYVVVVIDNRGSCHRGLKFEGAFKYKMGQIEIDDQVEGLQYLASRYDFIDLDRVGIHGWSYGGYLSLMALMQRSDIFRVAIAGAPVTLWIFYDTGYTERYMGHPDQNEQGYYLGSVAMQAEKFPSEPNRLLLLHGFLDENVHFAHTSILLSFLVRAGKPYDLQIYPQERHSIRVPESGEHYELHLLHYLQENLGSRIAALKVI
Sequence of Dipeptidyl peptidase 9 (Q86TI2 whole entry): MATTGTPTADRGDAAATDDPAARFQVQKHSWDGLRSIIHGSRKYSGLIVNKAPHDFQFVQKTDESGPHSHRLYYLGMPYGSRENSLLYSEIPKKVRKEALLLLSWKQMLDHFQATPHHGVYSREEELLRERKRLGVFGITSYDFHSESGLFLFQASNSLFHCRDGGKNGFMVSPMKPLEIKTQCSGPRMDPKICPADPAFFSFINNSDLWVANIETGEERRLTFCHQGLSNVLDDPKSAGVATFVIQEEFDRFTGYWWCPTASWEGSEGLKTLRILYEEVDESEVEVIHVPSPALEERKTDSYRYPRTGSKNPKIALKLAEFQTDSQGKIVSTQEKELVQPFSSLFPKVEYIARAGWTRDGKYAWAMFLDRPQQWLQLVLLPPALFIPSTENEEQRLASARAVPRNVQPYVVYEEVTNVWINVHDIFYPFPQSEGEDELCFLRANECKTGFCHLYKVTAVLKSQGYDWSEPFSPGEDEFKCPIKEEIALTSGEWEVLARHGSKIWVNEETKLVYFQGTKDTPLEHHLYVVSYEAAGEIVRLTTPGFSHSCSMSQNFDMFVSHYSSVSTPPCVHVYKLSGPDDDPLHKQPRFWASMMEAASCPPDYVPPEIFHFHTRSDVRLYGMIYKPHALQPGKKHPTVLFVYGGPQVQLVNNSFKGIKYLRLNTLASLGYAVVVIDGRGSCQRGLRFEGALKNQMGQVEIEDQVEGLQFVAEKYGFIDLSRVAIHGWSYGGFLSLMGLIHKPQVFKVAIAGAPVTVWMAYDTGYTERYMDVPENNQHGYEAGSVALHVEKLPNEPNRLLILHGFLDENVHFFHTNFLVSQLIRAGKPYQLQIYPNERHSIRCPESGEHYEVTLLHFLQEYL
Sequence of Cytochrome P450 2C9 (P11712 whole entry): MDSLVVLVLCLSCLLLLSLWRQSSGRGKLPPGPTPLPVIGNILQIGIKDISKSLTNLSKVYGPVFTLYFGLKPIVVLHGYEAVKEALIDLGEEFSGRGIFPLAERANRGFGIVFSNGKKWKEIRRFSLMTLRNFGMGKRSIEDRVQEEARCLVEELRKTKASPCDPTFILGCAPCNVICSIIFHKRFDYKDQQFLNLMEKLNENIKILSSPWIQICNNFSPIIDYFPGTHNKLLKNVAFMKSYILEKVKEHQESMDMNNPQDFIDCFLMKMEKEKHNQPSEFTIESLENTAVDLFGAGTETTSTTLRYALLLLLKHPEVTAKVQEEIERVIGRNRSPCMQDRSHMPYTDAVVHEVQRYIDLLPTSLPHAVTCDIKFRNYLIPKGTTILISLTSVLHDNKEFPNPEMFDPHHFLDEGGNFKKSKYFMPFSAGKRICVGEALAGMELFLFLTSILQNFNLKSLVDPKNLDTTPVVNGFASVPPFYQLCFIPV
Sequence of Cytochrome P450 2C19 (P33261 whole entry): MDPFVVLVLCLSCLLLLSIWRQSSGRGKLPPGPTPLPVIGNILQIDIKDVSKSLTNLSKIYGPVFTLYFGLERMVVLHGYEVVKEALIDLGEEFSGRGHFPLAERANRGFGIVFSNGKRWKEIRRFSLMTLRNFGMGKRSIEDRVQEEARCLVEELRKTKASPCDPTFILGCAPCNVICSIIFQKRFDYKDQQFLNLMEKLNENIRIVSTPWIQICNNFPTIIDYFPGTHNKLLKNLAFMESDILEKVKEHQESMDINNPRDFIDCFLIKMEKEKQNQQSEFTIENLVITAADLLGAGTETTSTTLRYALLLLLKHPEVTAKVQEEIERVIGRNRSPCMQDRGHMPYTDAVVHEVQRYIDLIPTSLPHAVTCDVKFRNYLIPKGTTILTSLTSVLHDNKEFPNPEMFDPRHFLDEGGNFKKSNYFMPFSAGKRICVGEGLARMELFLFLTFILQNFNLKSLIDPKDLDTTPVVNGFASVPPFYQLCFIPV
Sequence of Cytochrome P450 3A4 (P08684 whole entry): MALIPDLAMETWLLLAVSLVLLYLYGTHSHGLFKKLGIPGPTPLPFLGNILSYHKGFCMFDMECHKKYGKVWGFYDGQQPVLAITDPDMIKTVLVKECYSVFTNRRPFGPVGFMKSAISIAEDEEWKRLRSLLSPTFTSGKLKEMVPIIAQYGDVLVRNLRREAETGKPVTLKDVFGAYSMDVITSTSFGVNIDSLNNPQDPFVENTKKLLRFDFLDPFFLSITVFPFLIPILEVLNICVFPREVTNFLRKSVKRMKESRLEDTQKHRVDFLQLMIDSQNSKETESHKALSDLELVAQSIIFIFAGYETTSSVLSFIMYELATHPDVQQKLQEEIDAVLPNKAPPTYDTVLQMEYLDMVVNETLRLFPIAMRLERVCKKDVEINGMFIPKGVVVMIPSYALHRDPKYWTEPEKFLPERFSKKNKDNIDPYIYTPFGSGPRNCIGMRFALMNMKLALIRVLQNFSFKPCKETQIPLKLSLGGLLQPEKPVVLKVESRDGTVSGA

SMILES: COc1ccccc1-c1cn2c(-c3ccc(Cl)cc3Cl)c(CN)c(C)nc2n1
- Ki (Dipeptidyl peptidase 9): > 10 µM

SMILES: Cc1cc2nc(C)c(CN)c(-c3ccc(Cl)cc3Cl)n2n1
- Ki (Dipeptidyl peptidase 8): > 30 µM
- Ki (Dipeptidyl peptidase 9): > 30 µM

SMILES: Cc1nc2c(-c3ccccc3)cnn2c(-c2ccc(Cl)cc2Cl)c1CN
- Ki (Dipeptidyl peptidase 8): > 30 µM
- Ki (Dipeptidyl peptidase 9): > 30 µM

SMILES: Cc1nc2cc(-c3ccccc3)nn2c(-c2ccc(Cl)cc2Cl)c1CN
- Ki (Dipeptidyl peptidase 8): > 30 µM
- IC50 (Cytochrome P450 2C19): 3 µM
- IC50 (Cytochrome P450 3A4): 1000 nM
- IC50 (Cytochrome P450 1A2): 6 µM
- inhibition (INH) [1]: 95%
- Ki (Dipeptidyl peptidase 9): > 20 µM
- IC50 (Cytochrome P450 2C9): 12 µM

SMILES: CCC(=O)c1cnn2c(-c3ccc(Cl)cc3Cl)c(CN)c(C)nc12
- Ki (Dipeptidyl peptidase 8): > 30 µM
- Ki (Dipeptidyl peptidase 9): > 30 µM

SMILES: Cc1nc2cc(-c3ccco3)nn2c(-c2ccc(Cl)cc2Cl)c1CN
- Ki (Dipeptidyl peptidase 8): > 30 µM
- Ki (Dipeptidyl peptidase 9): > 30 µM

SMILES: Cc1nc2cc(-c3ccc(Cl)cc3)nn2c(-c2ccc(Cl)cc2Cl)c1CN
- Ki (Dipeptidyl peptidase 9): > 30 µM

SMILES: Cc1ccc(-c2cc3nc(C)c(CN)c(-c4ccc(Cl)cc4Cl)n3n2)cc1
- Ki (Dipeptidyl peptidase 8): > 30 µM
- Ki (Dipeptidyl peptidase 9): > 10 µM

SMILES: Cc1nc2nc(C)c(CN)c(-c3ccc(Cl)cc3Cl)n2n1
- Ki (Dipeptidyl peptidase 8): > 30 µM
- Ki (Dipeptidyl peptidase 9): > 30 µM

SMILES: Cc1nc2nc(-c3ccccc3)nn2c(-c2ccc(Cl)cc2Cl)c1CN
- Ki (Dipeptidyl peptidase 8): > 30 µM
- inhibition (INH) [1]: 85%
- Ki (Dipeptidyl peptidase 9): > 30 µM

SMILES: COC(=O)c1nc2nc(C)c(CN)c(-c3ccc(Cl)cc3Cl)n2n1
- Ki (Dipeptidyl peptidase 8): > 30 µM
- Ki (Dipeptidyl peptidase 9): > 30 µM

SMILES: Cc1nc2nc(C(=O)Nc3ccccc3)nn2c(-c2ccc(Cl)cc2Cl)c1CN
- Ki (Dipeptidyl peptidase 9): > 10 µM

SMILES: CCN(CC)c1nc2nc(C)c(CN)c(-c3ccc(Cl)cc3Cl)n2n1
- Ki (Dipeptidyl peptidase 8): > 30 µM
- Ki (Dipeptidyl peptidase 9): > 30 µM

SMILES: CCN(C)c1nc2nc(C)c(CN)c(-c3ccc(Cl)cc3Cl)n2n1
- Ki (Dipeptidyl peptidase 8): > 30 µM
- Ki (Dipeptidyl peptidase 9): > 30 µM

SMILES: COCCN(C)c1nc2nc(C)c(CN)c(-c3ccc(Cl)cc3Cl)n2n1
- Ki (Dipeptidyl peptidase 9): > 30 µM

SMILES: Cc1nc2nc(N3CCCC3)nn2c(-c2ccc(Cl)cc2Cl)c1CN
- Ki (Dipeptidyl peptidase 8): > 10 µM
- Ki (Dipeptidyl peptidase 9): > 30 µM

SMILES: Cc1nc2nc(N3CCOCC3)nn2c(-c2ccc(Cl)cc2Cl)c1CN
- Ki (Dipeptidyl peptidase 9): > 30 µM

SMILES: Cc1nc2nc(N3CCSCC3)nn2c(-c2ccc(Cl)cc2Cl)c1CN
- Ki (Dipeptidyl peptidase 8): > 30 µM
- Ki (Dipeptidyl peptidase 9): > 30 µM

SMILES: Cc1nc2nc(N3CCN(C(=O)OC(C)(C)C)CC3)nn2c(-c2ccc(Cl)cc2Cl)c1CN
- Ki (Dipeptidyl peptidase 8): > 30 µM
- Ki (Dipeptidyl peptidase 9): > 30 µM

SMILES: Cc1nc2nc(N3CCNCC3)nn2c(-c2ccc(Cl)cc2Cl)c1CN
- Ki (Dipeptidyl peptidase 8): > 30 µM
- Ki (Dipeptidyl peptidase 9): > 30 µM

SMILES: Cc1nc2nccn2c(-c2ccc(Cl)cc2Cl)c1CN
- Ki (Dipeptidyl peptidase 8): > 30 µM
- Ki (Dipeptidyl peptidase 9): > 30 µM

SMILES: Cc1nc2nc(-c3ccccc3)cn2c(-c2ccc(Cl)cc2Cl)c1CN
- Activity (Mus musculus [2]): 74%
- Ki (Dipeptidyl peptidase 8): > 30 µM
- IC50 (Cytochrome P450 2C19): 13 µM
- IC50 (Cytochrome P450 3A4): 1000 nM
- IC50 (Cytochrome P450 1A2; read-out: IC50): 19 µM
- inhibition (INH) [1]: 74%
- Ki (Dipeptidyl peptidase 9): > 30 µM
- IC50 (Cytochrome P450 2C9): > 40 µM
- Activity (Mus musculus [3]): 51%
